# From patent publication US20170008928A1, “NOVEL PEPTIDES AND PEPTIDE DERIVATIVES AND USES THEREOF” (Novo Nordisk A/S, priority 2015, published 2017)
# Read-outs that look alike come from different tables or passages of the source. Starred links: 1 amine or outer side, 2 acyl side, 3 side chain; linkers in the order of their positions; H or OH if unused. Non-standard residues stand in square brackets, D forms with d. Residues, ends and D or L forms follow the SMILES beside them. *: point of attachment. Phe(4-CH2SO3H) = N[C@@H](Cc1ccc(CS(=O)(=O)O)cc1)C(=O)O; sY = N[C@@H](Cc1ccc(OS(=O)(=O)O)cc1)C(=O)O; C18 diacid = O=C(O)CCCCCCCCCCCCCCCCC(=O)*; γGlu = O=C(O)[C@H](CCC(=O)[*:2])N[*:1]; Met(O2) = CS(=O)(=O)CC[C@H](N)C(=O)O; NMeF = CN[C@@H](Cc1ccccc1)C(=O)O; dNMeD = CN[C@H](CC(=O)O)C(=O)O; Nle = CCCC[C@H](N)C(=O)O; AEEA = NCCOCCOCC(=O)O
# How the values were obtained:
# [1] = target: T1, human cholecystokinin-1 receptor (CCK-1R) (Homo sapiens, UniProt P32238); assay: In vitro receptor binding to CCK-1R, SPA displacement of [125I]-CCK-8s from plasma membranes
# T1 construct: host or cells: 1321-N1 cells
# T1 sequence (P32238 1-428): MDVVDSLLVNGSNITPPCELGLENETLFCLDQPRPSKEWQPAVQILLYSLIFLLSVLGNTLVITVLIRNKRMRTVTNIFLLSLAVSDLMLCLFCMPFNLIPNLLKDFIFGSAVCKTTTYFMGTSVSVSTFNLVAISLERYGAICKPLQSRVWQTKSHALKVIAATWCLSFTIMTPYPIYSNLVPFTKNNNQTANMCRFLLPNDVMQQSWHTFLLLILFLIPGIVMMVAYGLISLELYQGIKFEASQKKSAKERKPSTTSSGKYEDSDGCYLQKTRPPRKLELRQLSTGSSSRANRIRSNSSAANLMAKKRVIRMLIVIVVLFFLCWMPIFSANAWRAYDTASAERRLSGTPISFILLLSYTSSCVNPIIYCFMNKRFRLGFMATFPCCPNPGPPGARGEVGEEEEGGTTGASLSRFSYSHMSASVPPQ
# Protocol: The in vitro binding affinity is a measure of the strength of attraction between a receptor and its ligand.
# Displacement of radio ligand was measured as reduction in light emission from SPA beads.
# The cells used in these assays were 1321-N1 cells stably expressing the CCK-1R or the CCK-2R (Perkin Elmer product numbers ES-530-A and ES-531-A, respectively see www.perkinelmer.com/Catalog/Product/ID/ES-530-A or -ES-531-A, respectively).
# The cells were cultured in an incubator (95% RH (relative humidity), 5% (of standard atmospheric pressure) CO2, 37° C.) in cell culture medium (DMEM (Lonza catalogue BE-12-604F/U1), with 10% (v/v) Foetal Calf Serum (FCS, Gibco catalogue 16140-071), 1% (w/w) Sodium pyruvate (Gibco catalogue 11360-039), 500 μg/ml Geneticin® (G418) (Gibco catalogue 10131-027), 25 μg/ml Zeocin™ (Invitrogen catalogue R250-05), 1% (w/w) Pen/Strep (Gibco catalogue 15140-122)).
# Plasma membranes were prepared by Evotec AG Hamburg by use of the ParrBomb (#4635, Parr Instrument Company). Cells were lysed with a lysis buffer (50 mM Tris, 2.5 mM EDTA, pH7) with added protease inhibitors (Complete Proteaseinhibitors EDTA-free (#05056489001, Roche), 1 tablet per 50 mL lysis buffer). The membrane fraction was separated by centrifugation. First, the cell lysate was centrifuged at 1000×g for 10 minutes at 4° C. The pellet was discarded and the supernatant was then centrifuged at 100.000×g for 30 minutes at 4° C. The supernatant was discarded and the pellet was re-suspended in 1 ml/5×10^8 cells ice cold membrane buffer (50 mM Tris, 320 mM Sucrose and Complete Proteaseinhibitors EDTA-free (#05056489001, Roche); pH7.4) and homogenised with dounce homogeniser. The protein concentration was determined using the Pierce™ BCA Protein Assay Kit according to kit manual, and the membrane preparation was adjust to the desired protein concentration with membrane buffer and aliquoted into pre-cooled tubes, snap-frozen in liquid nitrogen, and stored at −80° C.
# CCK receptor binding assays were performed in 96-well Optiplates (Cat #6005290, PerkinElmer, Waltham, Mass., USA) in a total volume of 200 μl per well. CCK derivatives in 80% DMSO stock solutions of 800 μM were serially diluted […] in assay buffer (50 mM Tris/HCl, 4.5 mM MgCl2, […], 0.02% Tween 20, 0.25% ovalbumin, 0.1% pluronic F-68, pH 7.4) to final assay concentrations ranging from 10^−5 M (ten μM) to 10^−12 M (one pM).
# Fifty μl of reference or test compounds were added to the Optiplates (using technical duplicates, i.e. two wells of each sample, one data point being the average of two wells), followed by addition of 150 μl of the mixture of SPA bead, radio ligand, and plasma membrane. The plates were sealed and incubated in the dark at +22° C. for 2 hours on a IKA MTS plate shaker (IKA-Werke D-79219 Staufen) set at 300 rpm and thereafter centrifuged at 1500 rpm for 10 minutes in a Heraeus Multifuge 3s centrifuge. SPA bead light emission was measured in a TopCount NXT (PerkinElmer) for 2 min/well after a delay of 60 min.
# As a measure of compound affinity, calculations were performed in order to determine the half maximal inhibitory concentration (the IC50 value).
# The data from the TopCounter were given as counts per minute (CPM). The CPM was plotted as a function of the concentration of compound. Dose-response curves were obtained, and IC50 values were calculated, by a nonlinear three-parameter logistic equation (log(agonist) vs response) with hillslope=−1, and shared top and bottom using the software programme GraphPad Prism v 6.0 (Graph Pad software, La Jolla, Calif., USA). The highest dose tested was 10^−5 M (1×10^7 pM).
# The preference of a specific compound for the CCK-1 receptor, or the CCK-1R selectivity, may be defined as IC50 (CCK-2R)/IC50 (CCK-1R).
# A minimum of three biological replicates was measured for each test compound on separate assay plates.
# [2] = target: T2, human cholecystokinin-2 receptor (CCK-2R) (Homo sapiens, UniProt P32239); assay: In vitro receptor binding to CCK-2R, SPA displacement of [125I]-CCK-8s from plasma membranes
# T2 construct: host or cells: 1321-N1 cells (plasma membranes prepared by Evotec AG Hamburg)
# T2 sequence (P32239 1-447): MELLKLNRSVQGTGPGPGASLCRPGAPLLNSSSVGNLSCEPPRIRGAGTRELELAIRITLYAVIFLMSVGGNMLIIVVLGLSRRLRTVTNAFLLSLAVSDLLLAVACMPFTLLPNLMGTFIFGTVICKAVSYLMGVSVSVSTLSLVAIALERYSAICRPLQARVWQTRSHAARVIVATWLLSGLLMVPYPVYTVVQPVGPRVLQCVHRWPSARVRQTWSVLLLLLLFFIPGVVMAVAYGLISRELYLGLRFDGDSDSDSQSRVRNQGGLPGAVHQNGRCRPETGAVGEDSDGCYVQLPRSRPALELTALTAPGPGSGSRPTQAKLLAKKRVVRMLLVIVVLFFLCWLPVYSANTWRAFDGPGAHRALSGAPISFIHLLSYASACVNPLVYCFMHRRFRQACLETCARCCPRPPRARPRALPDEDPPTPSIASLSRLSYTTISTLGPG
# [3] = target: T2, human cholecystokinin-2 receptor (CCK-2R); assay: In vitro potency on CCK-2R, whole cell functional assay (IP1 accumulation, IP-One HTRF); type: cell-based
# [4] = target: T1, human cholecystokinin-1 receptor (CCK-1R); assay: In vitro potency on CCK-1R, whole cell functional assay (IP1 accumulation, IP-One HTRF); type: cell-based
# [5] = displacement of [125I]-CCK-8s, plasma membranes of 1321-N1 cells expressing CCK-1R, read-out: IC50 (CCK-1R)
# [6] = displacement of [125I]-CCK-8s, plasma membranes of 1321-N1 cells expressing CCK-2R, highest dose tested 1×10^7 pM, read-out: IC50 (CCK-2R)
# [7] = 1321-N1 cells stably expressing CCK-2R, IP1 accumulation, highest dose tested 1×10^6 pM, read-out: EC50 (CCK-2R)
SMILES,"EC50 [3, 7]",IC50 [1],IC50 [2],EC50 [3],other results
"CCCC[C@H](NC(=O)[C@H](Cc1ccc(CS(=O)(=O)O)cc1)NC(=O)[C@@H](CC(=O)O)NC(=O)COCCOCCNC(=O)COCCOCCNC(=O)CC[C@H](NC(=O)CCCCCCCCCCCCCCCCC(=O)O)C(=O)O)C(=O)NCC(=O)N[C@@H](Cc1c[nH]c2ccccc12)C(=O)N[C@@H](CCCC)C(=O)N(C)[C@H](CC(=O)O)C(=O)N(C)[C@@H](Cc1ccccc1)C(N)=O [Example 25, 2-[2-[2-[[2-[2-[2-[[(4S)-4-Carboxy-4-(17-carboxyheptadecanoylamino)butanoyl]amino]ethoxy]ethoxy]acetyl]amino]ethoxy]ethoxy]acetyl-DAsp-Phe(4-sulfomethyl)-Nle-Gly-Trp-Nle-DMeAsp-MePhe-amide] ({C18 diacid-γGlu-AEEA-AEEA}-[dD][Phe(4-CH2SO3H)][Nle]GW[Nle][dNMeD][NMeF]-NH2)",> 1000 nM,,,,"IC50 [1, 5]: 0.072 nM; IC50 [2, 6]: > 10000 nM"
"CC(C)C[C@H](NC(=O)[C@H](Cc1ccc(OS(=O)(=O)O)cc1)NC(=O)[C@@H](N)CC(=O)O)C(=O)NCC(=O)N[C@@H](Cc1c[nH]c2ccccc12)C(=O)N[C@@H](CCC(N)=O)C(=O)N(C)[C@H](CC(=O)O)C(=O)N(C)[C@@H](Cc1ccccc1)C(N)=O [Example 62, Asp-sTyr-Leu-Gly-Trp-Gln-DMeAsp-MePhe-amide] (H-D[sY]LGWQ[dNMeD][NMeF]-NH2)",,0.075 nM,> 10000 nM,> 1000 nM,
"CCCC[C@H](NC(=O)[C@H](Cc1c[nH]c2ccccc12)NC(=O)CNC(=O)[C@H](CC(C)C)NC(=O)[C@H](Cc1ccc(OS(=O)(=O)O)cc1)NC(=O)[C@@H](N)CCC(=O)O)C(=O)N(C)[C@H](CC(=O)O)C(=O)N[C@@H](Cc1ccccc1)C(N)=O [Example 90, Glu-sTyr-Leu-Gly-Trp-Nle-DMeAsp-Phe-amide] (H-E[sY]LGW[Nle][dNMeD]F-NH2)",> 1000 nM,,,,"IC50 [1, 5]: 0.029 nM; IC50 [2, 6]: > 10000 nM"
"CC(C)C[C@H](NC(=O)[C@H](Cc1ccc(OS(=O)(=O)O)cc1)NC(=O)[C@@H](N)CC(=O)O)C(=O)NCC(=O)N[C@@H](Cc1c[nH]c2ccccc12)C(=O)N[C@H](C(=O)N(C)[C@H](CC(=O)O)C(=O)N(C)[C@@H](Cc1ccccc1)C(N)=O)C(C)C [Example 65, Asp-sTyr-Leu-Gly-Trp-Val-DMeAsp-MePhe-amide] (H-D[sY]LGWV[dNMeD][NMeF]-NH2)",,0.62 nM,> 10000 nM,> 1000 nM,
"CCCC[C@H](NC(=O)[C@H](Cc1c[nH]c2ccccc12)NC(=O)CNC(=O)[C@H](CCCNC(=N)N)NC(=O)[C@H](Cc1ccc(OS(=O)(=O)O)cc1)NC(=O)[C@@H](N)CC(=O)O)C(=O)N(C)[C@H](CC(=O)O)C(=O)N(C)[C@@H](Cc1ccccc1)C(N)=O [Example 68, Asp-sTyr-Arg-Gly-Trp-Nle-DMeAsp-MePhe-amide] (H-D[sY]RGW[Nle][dNMeD][NMeF]-NH2)",,,,,"EC50 ([4]; 1321-N1 cells stably expressing CCK-1R, IP1 accumulation, average of min. three replicates, read-out: EC50 (CCK-1R)): 0.21 nM"
"CC(C)C[C@H](NC(=O)[C@H](Cc1ccc(OS(=O)(=O)O)cc1)NC(=O)[C@H](CC(=O)O)NC(=O)COCCOCCNC(=O)COCCOCCNC(=O)CC[C@H](NC(=O)CCCCCCCCCCCCCCCCC(=O)O)C(=O)O)C(=O)NCC(=O)N[C@@H](Cc1c[nH]c2ccccc12)C(=O)N[C@@H](C)C(=O)N(C)[C@H](CC(=O)O)C(=O)N(C)[C@@H](Cc1ccccc1)C(N)=O [Example 40, 2-[2-[2-[[2-[2-[2-[[(4S)-4-Carboxy-4-(17-carboxyheptadecanoylamino)butanoyl]amino]ethoxy]ethoxy]acetyl]amino]ethoxy]ethoxy]acetyl-Asp-sTyr-Leu-Gly-Trp-Ala-DMeAsp-MePhe-amide] ({C18 diacid-γGlu-AEEA-AEEA}-D[sY]LGWA[dNMeD][NMeF]-NH2)",,0.65 nM,> 10000 nM,880 nM,
"CCCC[C@H](NC(=O)[C@H](Cc1ccc(CS(=O)(=O)O)cc1)NC(=O)[C@H](CC(=O)O)NC(=O)COCCOCCNC(=O)[C@H](CCCCN)NC(=O)COCCOCCNC(=O)COCCOCCNC(=O)CC[C@H](NC(=O)CCCCCCCCCCCCCCCCC(=O)O)C(=O)O)C(=O)NCC(=O)N[C@@H](Cc1c[nH]c2ccccc12)C(=O)N[C@@H](CCCC)C(=O)N(C)[C@H](CC(=O)O)C(=O)N(C)[C@@H](Cc1ccccc1)C(N)=O [Example 19, 2-[2-[2-[[2-[2-[2-[[(4S)-4-Carboxy-4-(17-carboxyheptadecanoylamino)butanoyl]amino]ethoxy]ethoxy]acetyl]amino]ethoxy]ethoxy]acetyl-Lys-2-[2-(2-aminoethoxy)ethoxy]acetyl-Asp-Phe(4-sulfomethyl)-Nle-Gly-Trp-Nle-DMeAsp-MePhe-amide] ({C18 diacid-γGlu-AEEA-AEEA}-K[AEEA]D[Phe(4-CH2SO3H)][Nle]GW[Nle][dNMeD][NMeF]-NH2)",,,,,EC50 [4]: 0.21 nM
"CC(C)C[C@H](NC(=O)[C@H](Cc1ccc(OS(=O)(=O)O)cc1)NC(=O)[C@@H](N)CC(=O)O)C(=O)NCC(=O)N[C@@H](Cc1c[nH]c2ccccc12)C(=O)N[C@@H](CCS(C)(=O)=O)C(=O)N(C)[C@H](CC(=O)O)C(=O)N(C)[C@@H](Cc1ccccc1)C(N)=O [Example 63, Asp-sTyr-Leu-Gly-Trp-Met(O2)-DMeAsp-MePhe-amide] (H-D[sY]LGW[Met(O2)][dNMeD][NMeF]-NH2)",> 1000 nM,0.54 nM,> 10000 nM,,
